Source: US7781591B2, “Substituted 3-cyanopyridines as protein kinase inhibitors” (Wyeth LLC, priority 2006, dated 2010)

target: T1, human PKCθ full length enzyme (Homo sapiens, UniProt Q04759); experiment: PKCθ IMAP assay (fluorescence polarization); type: biochemical; details: human PKCθ full length enzyme, IMAP; average value; read-out: IC50 PKCθ IMAP
T1 construct: human PKCθ full length enzyme (Panvera Cat# P2996); purchased Panvera P2996
T1 sequence (Q04759 whole entry): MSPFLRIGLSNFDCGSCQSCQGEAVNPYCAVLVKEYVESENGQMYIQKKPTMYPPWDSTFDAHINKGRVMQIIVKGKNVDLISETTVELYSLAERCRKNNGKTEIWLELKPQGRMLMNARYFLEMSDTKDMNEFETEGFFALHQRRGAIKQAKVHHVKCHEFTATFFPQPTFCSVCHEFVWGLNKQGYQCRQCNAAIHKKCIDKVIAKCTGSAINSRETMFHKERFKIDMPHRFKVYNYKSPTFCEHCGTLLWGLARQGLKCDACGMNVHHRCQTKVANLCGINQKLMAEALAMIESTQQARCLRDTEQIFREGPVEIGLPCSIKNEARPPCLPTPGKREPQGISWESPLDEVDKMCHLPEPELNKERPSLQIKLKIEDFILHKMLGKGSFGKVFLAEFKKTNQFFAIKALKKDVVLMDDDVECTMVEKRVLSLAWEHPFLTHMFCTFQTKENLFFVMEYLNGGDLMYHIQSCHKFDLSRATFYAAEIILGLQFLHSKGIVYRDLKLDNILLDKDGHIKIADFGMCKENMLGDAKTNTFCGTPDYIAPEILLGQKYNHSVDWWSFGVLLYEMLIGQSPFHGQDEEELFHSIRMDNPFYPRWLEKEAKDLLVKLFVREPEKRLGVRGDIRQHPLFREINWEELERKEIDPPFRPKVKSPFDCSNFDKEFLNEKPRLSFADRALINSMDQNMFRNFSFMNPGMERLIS

Row | IC50 [nM] | SMILES
1 | 21 | CNC(=O)Nc1ccc(-c2cncc(C#N)c2Nc2ccc3[nH]ccc3c2C)cc1 [Compound 567, 1-(4-{5-cyano-4-[(4-methyl-1H-indol-5-yl)amino]pyridin-3-yl}phenyl)-3-methylurea]
2 | 1 | Cc1c(Nc2c(C#N)cncc2-c2cc3cc(CNCC4CCN(C)CC4)ccc3o2)ccc2[nH]ccc12 [Compound 391, 4-[(4-methyl-1H-indol-5-yl)amino]-5-[5-({[(1-methylpiperidin-4-yl)methyl]amino}methyl)-1-benzofuran-2-yl]nicotinonitrile]
3 | 14 | N#Cc1cncc(-c2ccc(OC[C@H](N)Cc3ccccc3)cc2)c1Nc1cccc2[nH]ccc12 [Compound 458, 5-(4-{[(2R)-2-amino-3-phenylpropyl]oxy}phenyl)-4-(1H-indol-4-ylamino)nicotinonitrile]
4 | 16 | Cc1c(Nc2c(C#N)cncc2-c2ccc(CN3CCCC3)cc2)ccc2[nH]ccc12 [Compound 450, 4-[(4-methyl-1H-indol-5-yl)amino]-5-[4-(pyrrolidin-1-ylmethyl)phenyl]nicotinonitrile]
5 | 2 | CCCCNCc1ccc2sc(-c3cncc(C#N)c3Nc3cccc4[nH]ccc34)cc2c1 [Compound 273, 5-{5-[(butylamino)methyl]-1-benzothien-2-yl}-4-(1H-indol-4-ylamino)nicotinonitrile]
6 | 406 | Cc1c(Nc2c(C#N)cncc2-c2cc3cc(CN4CCN(C(=O)OC(C)(C)C)CC4)ccc3o2)cc(Cl)c2[nH]ccc12 [Compound 548, tert-butyl 4-[(2-{4-[(7-chloro-4-methyl-1H-indol-5-yl)amino]-5-cyanopyridin-3-yl}-1-benzofuran-5-yl)methyl]piperazine-1-carboxylate]
7 | 1450 | COc1ncc(-c2cncc(C#N)c2Nc2ccc3[nH]ccc3c2)cn1 [Compound 266, 4-(1H-indol-5-ylamino)-5-(2-methoxypyrimidin-5-yl)nicotinonitrile]
8 | 5 | Cc1c(Nc2c(C#N)cncc2-c2ccc(OCCNCCCO)cc2)ccc2[nH]ccc12 [Compound 415, 5-(4-{2-[(3-hydroxypropyl)amino]ethoxy}phenyl)-4-[(4-methyl-1H-indol-5-yl)amino]nicotinonitrile]
9 | 5 | CN1CCN(Cc2ccc3oc(-c4cncc(C#N)c4Nc4ccc5[nH]ccc5c4)cc3c2)CC1 [Compound 485, 4-(1H-indol-5-ylamino)-5-{5-[(4-methylpiperazin-1-yl)methyl]-1-benzofuran-2-yl}nicotinonitrile]
10 | 50 | Cc1c(Nc2c(C#N)cncc2-c2cccc(Cl)c2Cl)ccc2[nH]ccc12 [Compound 380, 5-(2,3-dichlorophenyl)-4-[(4-methyl-1H-indol-5-yl)amino]nicotinonitrile]
11 | 43 | Cc1c(Nc2c(C#N)cncc2-c2cn[nH]c2)ccc2[nH]ccc12 [Compound 584, 4-[(4-methyl-1H-indol-5-yl)amino]-5-(1H-pyrazol-4-yl)nicotinonitrile]
12 | 10 | COc1ccc(-c2cncc(C#N)c2Nc2ccc3[nH]c(C)cc3c2C)cc1OC [Compound 549, 5-(3,4-dimethoxyphenyl)-4-[(2,4-dimethyl-1H-indol-5-yl)amino]nicotinonitrile]
13 | 2 | N#Cc1cncc(-c2cccc(Br)c2)c1Nc1cccc2[nH]ccc12 [Compound 114, 5-(3-bromophenyl)-4-(1H-indol-4-ylamino)nicotinonitrile]
14 | 300 | N#Cc1cncc(-c2cccc(-c3ccc(C(=O)NC4CC4)cc3)c2)c1Nc1ccc2[nH]ccc2c1 [Compound 201, 3′-[5-cyano-4-(1H-indol-5-ylamino)pyridin-3-yl]-N-cyclopropylbiphenyl-4-carboxamide]
15 | 20 | Cc1c(Nc2c(C#N)cncc2-c2ccc(OCCN(C)C)cc2Cl)ccc2[nH]ccc12 [Compound 363, 5-{2-chloro-4-[2-(dimethylamino)ethoxy]phenyl}-4-[(4-methyl-1H-indol-5-yl)amino]nicotinonitrile]
16 | 200 | COc1ccc(-c2cncc(C#N)c2Nc2ccc3[nH]ccc3c2)cc1OCCN(C)C [Compound 236, 5-{3-[2-(dimethylamino)ethoxy]-4-methoxyphenyl}-4-(1H-indol-5-ylamino)nicotinonitrile]
17 | 70 | N#Cc1cncc(-c2cccc(-c3ccc(C(=O)N4CCCC4)cc3)c2)c1Nc1cccc2[nH]ccc12 [Compound 149, 4-(1H-indol-4-ylamino)-5-[4′-(pyrrolidin-1-ylcarbonyl)biphenyl-3-yl]nicotinonitrile]
18 | 0.48 | CCN1CCN(Cc2ccc3oc(-c4cncc(C#N)c4Nc4ccc5[nH]ccc5c4C)cc3c2)CC1 [Compound 553, 5-{5-[(4-ethylpiperazin-1-yl)methyl]-1-benzofuran-2-yl}-4-[(4-methyl-1H-indol-5-yl)amino]nicotinonitrile]
19 | 4 | Cc1c(Nc2c(C#N)cncc2-c2ccc(OCCNCc3ccccc3)cc2)ccc2[nH]ccc12 [Compound 419, 5-{4-[2-(benzylamino)ethoxy]phenyl}-4-[(4-methyl-1H-indol-5-yl)amino]nicotinonitrile]
20 | 58 | Cc1c(Nc2c(C#N)cncc2-c2cc3cc(CN4CCN(C(=O)OC(C)(C)C)CC4)ccc3o2)ccc2[nH]ccc12 [Compound 536, tert-butyl 4-[(2-{5-cyano-4-[(4-methyl-1H-indol-5-yl)amino]pyridin-3-yl}-1-benzofuran-5-yl)methyl]piperazine-1-carboxylate]
21 | 20 | COc1ccccc1-c1cncc(C#N)c1Nc1cccc2[nH]ccc12 [Compound 324, 4-(1H-indol-4-ylamino)-5-(2-methoxyphenyl)nicotinonitrile]
22 | 16200 | COc1cccc(-c2cncc(C#N)c2Nc2ccc3cn[nH]c3c2)c1 [Compound 296, 4-(1H-indazol-6-ylamino)-5-(3-methoxyphenyl)nicotinonitrile]
23 | 2 | N#Cc1cncc(-c2cc3cc(CNCCO)ccc3s2)c1Nc1cccc2[nH]ccc12 [Compound 274, 5-(5-{[(2-hydroxyethyl)amino]methyl}-1-benzothien-2-yl)-4-(1H-indol-4-ylamino)nicotinonitrile]
24 | 36 | COc1cccc(-c2cncc(C#N)c2Nc2ccc3[nH]ccc3c2C)c1 [Compound 558, 5-(3-methoxyphenyl)-4-[(4-methyl-1H-indol-5-yl)amino]nicotinonitrile]
25 | 3 | N#Cc1cncc(-c2cc3cc(CNCCCCO)ccc3s2)c1Nc1cccc2[nH]ccc12 [Compound 277, 5-(5-{[(4-hydroxybutyl)amino]methyl}-1-benzothien-2-yl)-4-(1H-indol-4-ylamino)nicotinonitrile]
26 | 30 | COc1ccc(-c2cncc(C#N)c2Nc2ccc3[nH]ccc3c2)cc1OCCNCCc1cccnc1 [Compound 252, 4-(1H-indol-5-ylamino)-5-(4-methoxy-3-{2-[(2-pyridin-3-ylethyl)amino]ethoxy}phenyl)nicotinonitrile]
27 | 11 | COCCOc1ccc(-c2cncc(C#N)c2Nc2ccc3[nH]ccc3c2C)cc1OC [Compound 478, 5-[3-methoxy-4-(2-methoxyethoxy)phenyl]-4-[(4-methyl-1H-indol-5-yl)amino]nicotinonitrile]
28 | 2 | N#Cc1cncc(-c2cc3cc(CNC4CC4)ccc3s2)c1Nc1cccc2[nH]ccc12 [Compound 278, 5-{5-[(cyclopropylamino)methyl]-1-benzothien-2-yl}-4-(1H-indol-4-ylamino)nicotinonitrile]
